From patent US20090023186A1, “USE OF VALPROIC ACID FOR ENHANCING PRODUCTION OF RECOMBINANT PROTEINS IN MAMMALIAN CELLS” (EXCELLGENE SA, priority 2007, published 2009)

Tested on: CHO DG44 cells
Assay: Combination with IDMTs, IgG batch yield by ELISA (Example 6)
Type: cell-based, Chinese Hamster
Details: VPA 0.5 mmol/l; no addition = 100%; day 5 after transfection
Protocol: 10 million suspension-adapted HEK293E cells were resuspended in 0.5 ml of Ex-Cell 293 HEK 293 serum-free medium with 4 mmol/l L-glutamine (Cat. No. 14571C-[…]; Lot No. 6A0093; SAFC Biosciences, Lenexa, Kans., USA, “Ex-Cell” medium; note: “Ex-Cell” medium-as used herein-refers to a medium comprising 4 mmol/l L-glutamine) in a 50-ml filter tube each (TPP AG, Trasadingen, Switzerland; Cat. No. 87050, Lot 20050174). In a separate set, 10 million suspension-adapted CHO DG44 cells were resuspended in 0.5 ml of ProCHO5 serum-free medium with 4 mmol/[…] hypoxanthine and 0.194 g/l thymidine (BioWhittaker (Lonza), Belgium; Cat. No. BE12-[…]; Lot No. 7MB0040; “ProCHO5” medium; note: “ProCHO5” medium-as used herein-refers to a medium comprising 4 mmol/[…] hypoxanthine and 0.194 g/l thymidine) in a 50-ml filter tube each (TPP AG, Trasadingen, Switzerland; Cat. No. 87050, Lot 20050174). Then 12.5 μg plasmid DNA at a concentration of 1 μg/μl was added in each tube with the following composition 50% (6.25 μg) p-LC (SEQ ID NO: 1) 50% (6.25 μg) p-HC (SEQ ID NO: 3). Plasmid p-LC comprises the genetic information for the production of the light chain of an IgG antibody, plasmid p-HC comprises the genetic information for the production of the heavy chain of an IgG antibody. The particular vector constructs used in the present invention can also be obtained from the inventors. The inventors can be contacted via e-mail at […]. Moreover, commercial services do exist that produce any desired nucleotide sequence even comprising several kilobase pairs including complete expression cassettes in plasmid backgrounds (e.g., Invitrogen, Carlsbad, USA; Geneart, Germany.) Thus, providing the genetic sequence information of the plasmids should enable one of ordinary skill in the art to order the plasmids of the present invention at one of the commercial services listed. After shortly mixing the DNA with the cells by gentle shaking, 25 μg of 25-kd linear polyethyleneimine (“PEI”; Polysciences, Eppelheim, Germany; [2]) were added at a concentration of 1 μg/μl to each of the tubes. After shortly mixing by gentle shaking, the filter tubes containing the cells together with the DNA and PEI were transferred into an orbital shaker (Kühner Shaker Cabinet ISF-4-W, “Kühner shaker”, Kühner AG, Birsfelden, Switzerland), and the cells were incubated for 4 hours at 37° C. in a 5% CO2 atmosphere under shaking at 180 rpm. After that time, 4.5 ml of Ex-Cell medium were added to each of the filter tubes containing HEK 293 cells and 4.5 ml of Pro-CHO5 were added to each of the filter tubes containing CHO DG44 cells. Then, valproic acid was added to each of the tubes at the corresponding final concentration. In addition, the following chemicals were added to the corresponding tubes at a final concentration of: […] Azacytidine was purchased from Sigma-Aldrich Chemie GmbH, Industriestrasse 25, CH-9471 Buchs SG, Catalog Number A1287-1 VL. RG108 was purchased from Sigma-Aldrich Chemie GmbH, Industriestrasse 25, CH-9471 Buchs SG, Catalog Number R8279-10MG. The cells then were returned into the Kuhner shaker and incubated at 37° C. in a 5% CO2 atmosphere under shaking at 180 rpm. […] In short, Goat anti-human kappa light chain IgG (Biosource) was used for coating the ELISA-plates, and with AP-conjugated goat anti-human gamma chain IgG (Biosource) the synthesized IgG1 was detected. […] Absorption was measured at 405 nm against 490 nm using a microplate reader (SPECTRAmaxTM340; Molecular Devices, Palo Alto, Calif., USA).

For `CCCC(CCC)C(=O)O` [VPA, valproic acid], the “Fold increase in batch yield over control” value was 170% ± 20%.
